Source: patent US20260207720A1, “COMPOSITIONS AND METHODS FOR TREATING FUNGAL INFECTIONS” (MUCPharm Pty Ltd, priority 2022, published 2026)

What was measured:
Type in all cases: cell-based
Aspergillus = experiment: Susceptibility assay of antifungals with BromAc (Example 4); conditions: antifungal in combination with BromAc (5 mg/ml Acetylcysteine+12.5 μg/ml Bromelain) vs alone
Protocol: (§1) The in vitro antifungal properties of Bromelain, Acetylcysteine, BromAc, Amphotericin B, Isavuconazole, Fluconazole and Posaconazole were determined using a broth microdilution method in round bottom 96 well plates in accordance with standard procedures defined by the Clinical Laboratory Standards Institute (CLSI).
(§2) Unless otherwise described, fungal cultures were grown on potato dextrose agar plates at 35° C. until mature (appearance of conidia) and used to prepare suspensions in sterile water. Suspensions were diluted in RPMI 1:60. These suspensions were then added in equal volume to solutions containing the candidate species described above and incubated at 35° C. for 24 hr. Plates were then analysed for fungal growth inhibition and MIC values determined.
(§3) BromAc (5 mg/ml Acetylcysteine+12.5 μg/ml Bromelain) was used in combination with Amphotericin B, Isavuconazole, Posaconazole and Fluconazole. The MIC values of these four antifungal agents against the fungus described below were calculated and compared with their corresponding MIC values in the presence of BromAc, using the standard susceptibility assays described above.
(§4) The fungal strains set out in Table 2, all of which were sourced from a range of clinical isolates from Australian hospitals, were used in these experiments to gain a further understanding of the efficacy of BromAc in combination with Amphotericin B, Isavuconazole, Posaconazole and Fluconazole.

Candida tropicalis = experiment: as above; conditions: for Observed inhibitory effect: antifungal in combination with BromAc (5 mg/ml Acetylcysteine+12.5 μg/ml Bromelain) vs alone; for isolates with more than a 10× increase in sensitivity: antifungal with BromAc
Protocol: as §1, §2, §3, §4

Cryptococcus = experiment: as above; conditions: for Observed inhibitory effect: antifungal in combination with BromAc (5 mg/ml Acetylcysteine+12.5 μg/ml Bromelain) vs alone; for isolates with more than 10× increase: antifungal with BromAc
Protocol: as §1, §2, §3, §4

Cunninghamella = experiment: as above; conditions: for Observed inhibitory effect: antifungal in combination with BromAc (5 mg/ml Acetylcysteine+12.5 μg/ml Bromelain) vs alone
Protocol: as §1, §2, §3, §4

Lomentospora = experiment: as above; conditions: antifungal in combination with BromAc (5 mg/ml Acetylcysteine+12.5 μg/ml Bromelain) vs alone
Protocol: as §1, §2, §3, §4

Candida glabrata = experiment: as above; conditions: for Observed inhibitory effect: antifungal in combination with BromAc (5 mg/ml Acetylcysteine+12.5 μg/ml Bromelain) vs alone; for isolates with more than a 10× increase in sensitivity: antifungal with BromAc
Protocol: as §1, §2, §3, §4

Candida parapslosis = experiment: as above; conditions: for increase in sensitivity: Candida parapsilosis, antifungal with BromAc; for Observed inhibitory effect: Candida parapslosis, antifungal in combination with BromAc (5 mg/ml Acetylcysteine+12.5 μg/ml Bromelain) vs alone
Protocol: as §1, §2, §3, §4

Scedosporium = experiment: as above; conditions: antifungal in combination with BromAc (5 mg/ml Acetylcysteine+12.5 μg/ml Bromelain) vs alone
Protocol: as §1, §2, §3, §4

Licthemia = experiment: as above; conditions: antifungal in combination with BromAc (5 mg/ml Acetylcysteine+12.5 μg/ml Bromelain) vs alone
Protocol: as §1, §2, §3, §4

Fusarium = experiment: as above; conditions: antifungal in combination with BromAc (5 mg/ml Acetylcysteine+12.5 μg/ml Bromelain) vs alone
Protocol: as §1, §2, §3, §4

Candida auris = experiment: as above; conditions: for isolates with more than 10× increase: Candida auris, antifungal with BromAc; for Observed inhibitory effect: Candida aurus, antifungal in combination with BromAc (5 mg/ml Acetylcysteine+12.5 μg/ml Bromelain) vs alone
Protocol: as §1, §2, §3, §4

Candida kruseii = experiment: as above; conditions: antifungal in combination with BromAc (5 mg/ml Acetylcysteine+12.5 μg/ml Bromelain) vs alone
Protocol: as §1, §2, §3, §4

Mucor circinelloides = experiment: as above; conditions: for Observed inhibitory effect: antifungal in combination with BromAc (5 mg/ml Acetylcysteine+12.5 μg/ml Bromelain) vs alone; for isolates with increased sensitivity: antifungal with BromAc
Protocol: as §1, §2, §3, §4

[1] = tested on: Candida Krusei (ATCC strain 6258); experiment: Broth dilution susceptibility test, MIC and percent growth (Example 6); conditions: for effect at lower doses / concentrations compared to GC (in words): below the MIC (Posaconazole 0.03 μg/ml)
Protocol: A. Preparation of inoculum: • 1. Candida glabrata was grown on Sabouraud dextrose agar (SDA) at 37° C. for 24-48 hrs. • 2. Following this, 5 colonies of 1 mm diameter were picked and suspended in 5 mL sterile saline (0.9% saline) and vortexed for 15 seconds. • 3. Working suspension is prepared as a 1:100 dilution from stock suspension with RPMI 1640 culture medium. • 4. The cell density is adjusted with a spectrophotometer to the transmittance produced by a 0.5 McFarland standard (0.08 to 0.1) OD at 625 nm wavelength.
• 1. For Bromelain, a stock concentration of 1 mg/ml Bromelain solution was prepared in RPMI media and diluted to test concentrations of 62.4, 31.2, 15.6 and 7.8 μg/ml in RPMI 1640 media. • 2. Acetylcysteine stock concentration is 200 mg/ml, diluted to 40, 20, 10, and 5 mg/ml concentrations in RPMI 1640 medium. • 3. These concentrations are prepared at 2× of the required concentrations in the final assay plate.
Antifungal stock concentrations are as follows— • 1. Amphotericin B, Stock concentration: 250 μg/ml in water. • 2. Posaconazole, Original concentration: 300 mg in 16.7 ml, Working stock concentration: 1 mg/ml in DMSO. • 3. Fluconazole, Original concentration: 100 mg in 50 ml, Working stock concentration: 1 mg/ml in DMSO. • 4. The final concentration was prepared in RPMI 1640 media and concentrations range was 0.01-0.5 μg/mL for amphotericin B, 0.01-2 μg/mL for posaconazole and 0.01-64 μg/mL for fluconazole. • 5. These concentrations were prepared at 2× of the required concentrations in the final assay plate.
• 1. Wells of the 96-well plates were inoculated with appropriate concentrations and volumes of drugs. • 2. Sterility control and growth controls are included in each plate. • 3. Each 96-well plate (except the control wells) contains 100 μL of double strength (twice the final antifungal drug) concentrations. • 4. 100 μL of the fungal suspension is added to 96-well plates (except the sterility control wells). • 5. The growth control wells contained 100 μL of sterile drug-free medium and 100 μL of inoculum suspension, while the sterility control wells contained 200 μl of sterile drug-free medium. • 6. Plates are then incubated at 37° C. and read at 625,430, and 530 nm wavelengths. • 7. Data from 24 hours and absorbance at 625 nm were used for analysis.
These experiments were conducted to determine the effect of BromAc alone and in combination with existing antifungal drugs against Candida Krusei (ATCC strain 6258).
The method used in these experiments is essentially the same as that described above in Example 5.

C[C@@H]1[C@H](O)[C@@H](C)/C=C/C=C/C=C/C=C/C=C/C=C/C=C/[C@H](O[C@@H]2O[C@H](C)[C@@H](O)[C@H](N)[C@@H]2O)C[C@@H]2O[C@](O)(C[C@@H](O)C[C@@H](O)[C@H](O)CC[C@@H](O)C[C@@H](O)CC(=O)O[C@H]1C)C[C@H](O)[C@H]2C(=O)O [Amphotericin B]
Observed inhibitory effect (Aspergillus): No effect | Observed inhibitory effect (Candida tropicalis): Strong (Strong = 5-10x (or greater) inhibitory effect) | isolates with more than a 10× increase in sensitivity (Candida tropicalis): 4 of 5 | Observed inhibitory effect (Cryptococcus): Strong (Strong = 5-10x (or greater) inhibitory effect) | isolates with more than 10× increase (Cryptococcus): 5 of 5 | Observed inhibitory effect (Cunninghamella): Possible | Observed inhibitory effect (Lomentospora): No effect | Observed inhibitory effect (Candida glabrata): Strong (Strong = 5-10x (or greater) inhibitory effect) | isolates with more than a 10× increase in sensitivity (Candida glabrata): 5 of 5 | increase in sensitivity (Candida parapslosis): ~10 × | Observed inhibitory effect (Candida parapslosis): Strong (Strong = 5-10x (or greater) inhibitory effect) | Observed inhibitory effect (Scedosporium): No effect | Observed inhibitory effect (Licthemia): Moderate (Moderate = 1-5x inhibitory effect) | Observed inhibitory effect (Fusarium): No effect | isolates with more than 10× increase (Candida auris): 2 of 5 | Observed inhibitory effect (Candida auris): Moderate (Moderate = 1-5x inhibitory effect) | Observed inhibitory effect (Candida kruseii): Strong (Strong = 5-10x (or greater) inhibitory effect) | Observed inhibitory effect (Mucor circinelloides): Strong (Strong = 5-10x (or greater) inhibitory effect) | isolates with increased sensitivity (Mucor circinelloides): 2 of 2 | MIC ([1]; Pichia kudriavzevii, ATCC6258, close to 90% inhibition): 1 µg/mL | effect at lower doses / concentrations compared to GC (in words) [1]: significant inhibition

CC[C@@H]([C@H](C)O)n1ncn(-c2ccc(N3CCN(c4ccc(OC[C@@H]5CO[C@@](Cn6cncn6)(c6ccc(F)cc6F)C5)cc4)CC3)cc2)c1=O [Posaconazole]
Observed inhibitory effect (Aspergillus): Moderate (Moderate = 1-5x inhibitory effect) | Observed inhibitory effect (Candida tropicalis): Strong (Strong = 5-10x (or greater) inhibitory effect) | isolates with more than a 10× increase in sensitivity (Candida tropicalis): 4 of 5 | Observed inhibitory effect (Cryptococcus): Strong (Strong = 5-10x (or greater) inhibitory effect) | isolates with more than 10× increase (Cryptococcus): 5 of 5 | Observed inhibitory effect (Cunninghamella): Moderate (Moderate = 1-5x inhibitory effect) | interaction with BromAc (in words) (Cunninghamella; antifungal with BromAc): some synergy | Observed inhibitory effect (Lomentospora): No effect | Observed inhibitory effect (Candida glabrata): Strong (Strong = 5-10x (or greater) inhibitory effect) | isolates with more than a 10× increase in sensitivity (Candida glabrata): 5 of 5 | increase in sensitivity (Candida parapslosis): more than 10 × | Observed inhibitory effect (Candida parapslosis): Strong (Strong = 5-10x (or greater) inhibitory effect) | Observed inhibitory effect (Scedosporium): Possible | Observed inhibitory effect (Licthemia): Moderate (Moderate = 1-5x inhibitory effect) | Observed inhibitory effect (Fusarium): No effect | isolates with more than 10× increase (Candida auris): 4 of 5 | Observed inhibitory effect (Candida auris): Strong (Strong = 5-10x (or greater) inhibitory effect) | Observed inhibitory effect (Candida kruseii): Strong (Strong = 5-10x (or greater) inhibitory effect) | Observed inhibitory effect (Mucor circinelloides): Strong (Strong = 5-10x (or greater) inhibitory effect) | isolates with increased sensitivity (Mucor circinelloides): 1 of 2 | MIC ([1]; Pichia kudriavzevii, ATCC6258, FIG. 10): 1 µg/mL | inhibition at 1 µg/mL ([1]; Pichia kudriavzevii, ATCC6258, Posaconazole 1 ug/ml, Fluconazole 32 μg/ml, read-out: activity (growth inhibition) at its MIC): > 50% | effect at lower doses / concentrations compared to GC (in words) [1]: no significant inhibition
